According to PubChem BioAssay (NCI):
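Step 1: Grow cells in 96-well plates. Step 2: Expose to compound for 48 hours at 5 concentrations. Step 3: Interpolate endpoints linearly; if unreached, use highest concentration. The concentration for full growth arrest is given as TGI.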

Columns and labels:
Test in all cases: NCI anticancer screen, dose series, 48 h
LOX IMVI melanoma = system: LOX IMVI melanoma
ACHN renal = system: ACHN renal
SNB-75 CNS = system: SNB-75 CNS
NCI-H226 lung = system: NCI-H226 lung
KM12 colon = system: KM12 colon
HOP-62 NSCLC = system: HOP-62 NSCLC
HT29 colon = system: HT29 colon
NCI-H23 lung = system: NCI-H23 lung
NCI-H522 lung = system: NCI-H522 lung
K-562 leukemia = system: K-562 leukemia
HCT-15 colon = system: HCT-15 colon
SNB-19 CNS = system: SNB-19 CNS
NCI-H460 lung = system: NCI-H460 lung
NCI/ADR-RES ovarian = system: NCI/ADR-RES ovarian
BT-549 breast = system: BT-549 breast
OVCAR-3 ovarian = system: OVCAR-3 ovarian
DU-145 prostate = system: DU-145 prostate
HOP-92 NSCLC = system: HOP-92 NSCLC
SW-620 colon = system: SW-620 colon
UO-31 renal = system: UO-31 renal
HCT-116 colon = system: HCT-116 colon
SR leukemia = system: SR leukemia
SF-539 CNS = system: SF-539 CNS
MALME-3M melanoma = system: MALME-3M melanoma
MDA-N = system: MDA-N
M14 melanoma = system: M14 melanoma
OVCAR-8 ovarian = system: OVCAR-8 ovarian
PC-3 prostate = system: PC-3 prostate
TK-10 renal = system: TK-10 renal
RXF 393 renal = system: RXF 393 renal
OVCAR-5 ovarian = system: OVCAR-5 ovarian
CCRF-CEM leukemia = system: CCRF-CEM leukemia
MDA-MB-231 breast = system: MDA-MB-231 breast
IGROV1 ovarian = system: IGROV1 ovarian
HL-60(TB) leukemia = system: HL-60(TB) leukemia
EKVX NSCLC = system: EKVX NSCLC
U251 CNS = system: U251 CNS
SK-OV-3 ovarian = system: SK-OV-3 ovarian
UACC-62 melanoma = system: UACC-62 melanoma
SK-MEL-28 melanoma = system: SK-MEL-28 melanoma
A549 NSCLC = system: A549 NSCLC
SK-MEL-2 melanoma = system: SK-MEL-2 melanoma
SF-295 CNS = system: SF-295 CNS
SF-268 CNS = system: SF-268 CNS
COLO 205 colon = system: COLO 205 colon
SN12C renal = system: SN12C renal
HCC-2998 colon = system: HCC-2998 colon
MDA-MB-435 = system: MDA-MB-435
RPMI-8226 leukemia = system: RPMI-8226 leukemia
T-47D breast = system: T-47D breast
SK-MEL-5 melanoma = system: SK-MEL-5 melanoma
CAKI-1 renal = system: CAKI-1 renal
HS 578T breast = system: HS 578T breast
MOLT-4 leukemia = system: MOLT-4 leukemia
UACC-257 melanoma = system: UACC-257 melanoma
OVCAR-4 ovarian = system: OVCAR-4 ovarian
786-0 renal = system: 786-0 renal
MCF7 breast = system: MCF7 breast
A498 renal = system: A498 renal

## CC1=C(C)CC2C(=O)N(c3cc(C(C)(C)C)ccc3C(C)(C)C)C(=O)C2C1 (stereo unspecified)
LOX IMVI melanoma
  TGI: > 100 µM
ACHN renal
  TGI: 23.2 µM
SNB-75 CNS
  TGI: 56.2 µM
NCI-H226 lung
  TGI: > 100 µM
KM12 colon
  TGI: > 100 µM
HOP-62 NSCLC
  TGI: 82.3 µM
HT29 colon
  TGI: > 100 µM
NCI-H23 lung
  TGI: > 100 µM
NCI-H522 lung
  TGI: 23.9 µM
K-562 leukemia
  TGI: > 100 µM
HCT-15 colon
  TGI: > 100 µM
SNB-19 CNS
  TGI: > 100 µM
NCI-H460 lung
  TGI: > 100 µM
NCI/ADR-RES ovarian
  TGI: > 100 µM
BT-549 breast
  TGI: > 100 µM
OVCAR-3 ovarian
  TGI: > 100 µM
DU-145 prostate
  TGI: > 100 µM
HOP-92 NSCLC
  TGI: > 100 µM
SW-620 colon
  TGI: > 100 µM
UO-31 renal
  TGI: > 100 µM
HCT-116 colon
  TGI: > 100 µM
SR leukemia
  TGI: > 100 µM
SF-539 CNS
  TGI: > 100 µM
MALME-3M melanoma
  TGI: 16.4 µM
MDA-N
  TGI: > 100 µM
M14 melanoma
  TGI: > 100 µM
OVCAR-8 ovarian
  TGI: > 100 µM
PC-3 prostate
  TGI: > 100 µM
TK-10 renal
  TGI: > 100 µM
RXF 393 renal
  TGI: 74.9 µM
OVCAR-5 ovarian
  TGI: > 100 µM
CCRF-CEM leukemia
  TGI: > 100 µM
MDA-MB-231 breast
  TGI: > 100 µM
IGROV1 ovarian
  TGI: > 100 µM
HL-60(TB) leukemia
  TGI: > 100 µM
EKVX NSCLC
  TGI: > 100 µM
U251 CNS
  TGI: > 100 µM
SK-OV-3 ovarian
  TGI: > 100 µM
UACC-62 melanoma
  TGI: 31.8 µM
SK-MEL-28 melanoma
  TGI: > 100 µM
A549 NSCLC
  TGI: > 100 µM
SK-MEL-2 melanoma
  TGI: > 100 µM
SF-295 CNS
  TGI: > 100 µM
SF-268 CNS
  TGI: 24.6 µM
COLO 205 colon
  TGI: > 100 µM
SN12C renal
  TGI: > 100 µM
HCC-2998 colon
  TGI: > 100 µM
MDA-MB-435
  TGI: > 100 µM
RPMI-8226 leukemia
  TGI: > 100 µM
T-47D breast
  TGI: > 100 µM
SK-MEL-5 melanoma
  TGI: > 100 µM
CAKI-1 renal
  TGI: > 100 µM
HS 578T breast
  TGI: 56.8 µM
MOLT-4 leukemia
  TGI: > 100 µM
UACC-257 melanoma
  TGI: > 100 µM
OVCAR-4 ovarian
  TGI: > 100 µM
786-0 renal
  TGI: > 100 µM
MCF7 breast
  TGI: 17.2 µM

## Cc1c(O)ccc2c(O)c(NC(=O)c3ccc4c(c3)CCC(C)(C)O4)c(=O)oc12
LOX IMVI melanoma
  TGI: > 100 µM
ACHN renal
  TGI: > 100 µM
SNB-75 CNS
  TGI: > 100 µM
NCI-H226 lung
  TGI: > 100 µM
KM12 colon
  TGI: > 100 µM
HOP-62 NSCLC
  TGI: > 100 µM
HT29 colon
  TGI: > 100 µM
NCI-H23 lung
  TGI: > 100 µM
NCI-H522 lung
  TGI: > 100 µM
K-562 leukemia
  TGI: > 100 µM
HCT-15 colon
  TGI: > 100 µM
SNB-19 CNS
  TGI: > 100 µM
NCI-H460 lung
  TGI: > 100 µM
NCI/ADR-RES ovarian
  TGI: > 100 µM
BT-549 breast
  TGI: > 100 µM
OVCAR-3 ovarian
  TGI: > 100 µM
DU-145 prostate
  TGI: > 100 µM
HOP-92 NSCLC
  TGI: > 100 µM
SW-620 colon
  TGI: > 100 µM
UO-31 renal
  TGI: > 100 µM
HCT-116 colon
  TGI: > 100 µM
SR leukemia
  TGI: > 100 µM
SF-539 CNS
  TGI: > 100 µM
MALME-3M melanoma
  TGI: > 100 µM
MDA-N
  TGI: > 100 µM
OVCAR-8 ovarian
  TGI: > 100 µM
PC-3 prostate
  TGI: > 100 µM
TK-10 renal
  TGI: > 100 µM
RXF 393 renal
  TGI: > 100 µM
OVCAR-5 ovarian
  TGI: > 100 µM
CCRF-CEM leukemia
  TGI: > 100 µM
MDA-MB-231 breast
  TGI: > 100 µM
IGROV1 ovarian
  TGI: > 100 µM
HL-60(TB) leukemia
  TGI: > 100 µM
EKVX NSCLC
  TGI: > 100 µM
U251 CNS
  TGI: > 100 µM
SK-OV-3 ovarian
  TGI: > 100 µM
UACC-62 melanoma
  TGI: > 100 µM
SK-MEL-28 melanoma
  TGI: > 100 µM
A549 NSCLC
  TGI: > 100 µM
SK-MEL-2 melanoma
  TGI: > 100 µM
SF-295 CNS
  TGI: > 100 µM
SF-268 CNS
  TGI: > 100 µM
COLO 205 colon
  TGI: > 100 µM
SN12C renal
  TGI: > 100 µM
HCC-2998 colon
  TGI: > 100 µM
MDA-MB-435
  TGI: > 100 µM
RPMI-8226 leukemia
  TGI: > 100 µM
T-47D breast
  TGI: > 100 µM
SK-MEL-5 melanoma
  TGI: > 100 µM
A498 renal
  TGI: > 100 µM
CAKI-1 renal
  TGI: > 100 µM
HS 578T breast
  TGI: > 100 µM
MOLT-4 leukemia
  TGI: > 100 µM
UACC-257 melanoma
  TGI: > 100 µM
OVCAR-4 ovarian
  TGI: > 100 µM
786-0 renal
  TGI: > 100 µM
MCF7 breast
  TGI: > 100 µM
